Source: article PMC6689975, “Novel Cell Wall Antifungals Reveal a Special Synergistic Activity in pbr1 Mutants Resistant to the Glucan Synthesis Antifungals Papulacandins and Echinocandins” (Frontiers in Microbiology, 2019)
Values after ≈ are worked out from the molar mass of the structure shown. Where two headings read alike, the source gives them in different places.

Assays:
Experiment in all cases: microbe, parasite or virus in culture
[1] = tested on: T1, S. pombe wild-type 972 h-; set-up: species or system whole yeast cells; macro tube broth dilution MIC in YEPD at 30 C, visual clearness of medium; conditions: Schizosaccharomyces pombe, 48 h, read-out: MIC
T1 construct: 972 h-
Protocol: (§1) Standard YEPD (Yeast Extract, Peptone, Dextrose) ([Sherman, 1990]), YEPD+S (YEPD with 1.2M sorbitol), YES (Yeast Extract, Dextrose and Supplements of Adenine, Histidine, Leucine, Uracil and Lysine) ([Alfa et al., 1993]) and YES+S (YES with 1.2 M sorbitol) ([Ribas et al., 1991]; [Ishiguro et al., 1997]), media were used for determination of MIC values of the tested compounds. A stock solution of 10 mg/ml of each tested compounds was prepared in DMSO and serial dilutions in DMSO were prepared. The final concentration of DMSO was 2% in the YEPD medium. […] The serial dilutions of compounds were dispensed into test tubes with 1 ml of YEPD or YEPD+S to make final concentrations of 200, 100, 50, 25, 12.5, 6.26, 3.125, 1.6, 0.8 and 0.4 μg/ml. The tested yeast strains were previously grown in YEPD, YEPD+S, YES or YES+S agar plates at 30°C for 48 h. For inoculation of YEPD or YEPD+S macro test tubes a suspension of tested fungus was produced with 10^5 cfu/ml (cfu - colony forming unit). 10 μl of suspension was used for inoculation of each tube. After 48 h incubation at 30°C the tubes were checked. The MIC value is the lowest concentration of the tested compound that could inhibit the fungal growth and the medium remained clear. From each tube 10 μl culture was plated on YEPD agar medium to check the contamination. The MIC tests were carried out in three parallels. The screening of the first generation of isochromanones was carried out in YEPD and YEPD+S media (1E-16E). The fungal strains analyzed are: C. albicans wild-type ATCC 26555, SC5314 and ATCC 90028, S. cerevisiae wild-type CVX12-3A and pbr1-1 mutant, and S. pombe wild-type (972h^–), pbr1-8 mutant and pbr1-6 mutant. The bold numbers in Tables 4–6 indicate the more efficient compounds. […] The weak or moderate efficacy against the C. albicans wild-type strains was observed by some substances (3E, 4Z, 5Z, 10E, 15, and 16E). The efficiency toward the S. pombe pbr1-6 mutant strain was the highest inhibitory activity, except 7E, 11E, 12 and 14E. […] As regards the other S. pombe pbr1-8 mutant strain, the antifungal activity of the tested compounds was slightly lower, but the substances with the best activity are partly identical to the best compounds mentioned with pbr1-6, (i.e., 1E, 3E, 4Z, 5Z).

C. albicans wild-type [2] = tested on: C. albicans wild-type; set-up: species or system whole yeast cells; macro tube broth dilution MIC in YEPD at 30 C, visual clearness of medium; conditions: Candida albicans, 48 h, read-out: MIC
Protocol: as §1

[3] = tested on: T2, S. cerevisiae wild-type CVX12-3A; set-up: species or system whole yeast cells; macro tube broth dilution MIC in YEPD at 30 C, visual clearness of medium; conditions: Saccharomyces cerevisiae, 48 h, read-out: MIC
T2 construct: CVX12-3A
Protocol: as §1

[4] = tested on: T1, S. pombe wild-type 972 h-; set-up: species or system whole yeast cells; micro-culture broth dilution MIC in YES at 30 C, turbidity, complete growth inhibition; conditions: Schizosaccharomyces pombe
Protocol: (§2) Standard YEPD (Yeast Extract, Peptone, Dextrose) ([Sherman, 1990]), YEPD+S (YEPD with 1.2M sorbitol), YES (Yeast Extract, Dextrose and Supplements of Adenine, Histidine, Leucine, Uracil and Lysine) ([Alfa et al., 1993]) and YES+S (YES with 1.2 M sorbitol) ([Ribas et al., 1991]; [Ishiguro et al., 1997]), media were used for determination of MIC values of the tested compounds. A stock solution of 10 mg/ml of each tested compounds was prepared in DMSO and serial dilutions in DMSO were prepared. The final concentration of DMSO was 2% in the YEPD medium. […] The serial dilutions of compounds were dispensed into test tubes with 1 ml of YEPD or YEPD+S to make final concentrations of 200, 100, 50, 25, 12.5, 6.26, 3.125, 1.6, 0.8 and 0.4 μg/ml. The tested yeast strains were previously grown in YEPD, YEPD+S, YES or YES+S agar plates at 30°C for 48 h. Micro-culture assays of large numbers of samples were analyzed as described) ([Martins et al., 2011]). Essentially early log-phase cells were grown in YEPD, YEPD+S, YES or YES+S (1.2 M sorbitol) medium at 30°C, and diluted to cell density of 4 X 10^6 cells/ml in YEPD, YEPD+S, YES or YES+S medium and aliquots of 100 μl were dispensed into each small test tube (3 ml test tube size). Then, another 100 μl of YEPD, YEPD+S, YES or YES+S with the corresponding dilution of each compound at 2X concentration (4% DMSO) was added. The final volume was 200 μl, with the cells diluted to of 2 X 10^6 cells/ml and each compound diluted to 1X final concentration, containing increasing concentrations of antifungal (0, 1, 2, 5, 10, 20, 50, 100 and 200 μg/ml) or an equivalent volume of solvent (2% DMSO). The cells were grown at 30°C in an orbital roller and turbidity was analyzed after 24 and 48 h of incubation. The MIC was determined as the minimal concentration of tested compound that produced complete cell growth inhibition and kept the medium clear. The MIC values were calculated from at least three independent experiments. Next, the first generation of isochromanones (1E-16E) was also screened in YES medium (Table 5) and exerted a weaker antifungal potency than in YEPD medium and also than the second family of isochromanones in YES medium (17E-30E) (Table 6). The strains are partly different from the previously mentioned ones (Tables 5, 6) analyzing two wild type C. albicans strains because they behaved similarly in YEPD. It is remarkable that there was no effect against either the C. albicans, the S. cerevisiae, or the S. pombe wild-type strains, except with 30E.

C. albicans wild-type [5] = tested on: C. albicans wild-type; set-up: species or system whole yeast cells; micro-culture broth dilution MIC in YES at 30 C, turbidity, complete growth inhibition; conditions: Candida albicans
Protocol: as §2

[6] = tested on: T2, S. cerevisiae wild-type CVX12-3A; set-up: species or system whole yeast cells; micro-culture broth dilution MIC in YES at 30 C, turbidity, complete growth inhibition; conditions: Saccharomyces cerevisiae
Protocol: as §2

C. albicans wild-type [7] = tested on: C. albicans wild-type; set-up: species or system whole yeast cells; macro tube broth dilution MIC in YEPD at 30 C, visual clearness of medium; conditions: Candida albicans, 48 h, read-out: MIC; remark: listed apart in the source
Protocol: as §1

C. albicans wild-type [8] = tested on: C. albicans wild-type; set-up: species or system whole yeast cells; macro tube broth dilution MIC in YEPD at 30 C, visual clearness of medium; conditions: Candida albicans, 48 h, read-out: MIC; remark: listed apart in the source
Protocol: as §1

[9] = tested on: Candida albicans C. a.^g (Table 6); set-up: species or system yeast; micro tube dilution MIC in YES (± 1.2 M sorbitol), complete growth inhibition by turbidity; conditions: 48 h, YES + 1.2 M sorbitol
Protocol: as §2, with “experiments.” for “experiments. Next, the first generation of isochromanones (1E-16E) was also screened in YES medium (Table 5) and exerted a weaker antifungal potency than in YEPD medium and also than the second family of isochromanones in YES medium (17E-30E) (Table 6). The strains are partly different from the previously mentioned ones (Tables 5, 6) analyzing two wild type C. albicans strains because they behaved similarly in YEPD. It is remarkable that there was no effect against either the C. albicans, the S. cerevisiae, or the S. pombe wild-type strains, except with 30E.”

[10] = tested on: T3, Schizosaccharomyces pombe S. p.^a (wild-type 972 h-); set-up: species or system yeast; micro tube dilution MIC in YES (± 1.2 M sorbitol), complete growth inhibition by turbidity; conditions: 48 h, YES + 1.2 M sorbitol
T3 construct: 972 h-
Protocol: as §2, with “experiments.” for “experiments. Next, the first generation of isochromanones (1E-16E) was also screened in YES medium (Table 5) and exerted a weaker antifungal potency than in YEPD medium and also than the second family of isochromanones in YES medium (17E-30E) (Table 6). The strains are partly different from the previously mentioned ones (Tables 5, 6) analyzing two wild type C. albicans strains because they behaved similarly in YEPD. It is remarkable that there was no effect against either the C. albicans, the S. cerevisiae, or the S. pombe wild-type strains, except with 30E.”

[11] = tested on: T4, Saccharomyces cerevisiae S. c.^d (wild-type CVX12-3A); set-up: species or system yeast; micro tube dilution MIC in YES (± 1.2 M sorbitol), complete growth inhibition by turbidity; conditions: 48 h, YES + 1.2 M sorbitol
T4 construct: CVX12-3A
Protocol: as §2, with “experiments.” for “experiments. Next, the first generation of isochromanones (1E-16E) was also screened in YES medium (Table 5) and exerted a weaker antifungal potency than in YEPD medium and also than the second family of isochromanones in YES medium (17E-30E) (Table 6). The strains are partly different from the previously mentioned ones (Tables 5, 6) analyzing two wild type C. albicans strains because they behaved similarly in YEPD. It is remarkable that there was no effect against either the C. albicans, the S. cerevisiae, or the S. pombe wild-type strains, except with 30E.”

[12] = tested on: Candida albicans C. a.^f (Tables 5, 6); set-up: species or system yeast; micro tube dilution MIC in YES (± 1.2 M sorbitol), complete growth inhibition by turbidity; conditions: 48 h, YES + 1.2 M sorbitol
Protocol: as §2, with “experiments.” for “experiments. Next, the first generation of isochromanones (1E-16E) was also screened in YES medium (Table 5) and exerted a weaker antifungal potency than in YEPD medium and also than the second family of isochromanones in YES medium (17E-30E) (Table 6). The strains are partly different from the previously mentioned ones (Tables 5, 6) analyzing two wild type C. albicans strains because they behaved similarly in YEPD. It is remarkable that there was no effect against either the C. albicans, the S. cerevisiae, or the S. pombe wild-type strains, except with 30E.”

[13] = YES medium, C. albicans strain f
[14] = YES medium, C. albicans strain g

| Structure (SMILES) | MIC [1] | MIC (C. albicans wild-type [2]) | MIC [3] | MIC ([4]; read-out: MIC) | MIC (C. albicans wild-type [5]; read-out: MIC) | MIC ([6]; read-out: MIC) | MIC (C. albicans wild-type [7]) | MIC (C. albicans wild-type [8]) | MIC ([4]; YES medium) | MIC (C. albicans wild-type [5]; [13]) | MIC (C. albicans wild-type [5]; [14]) | MIC ([6]; YES medium) | MIC [9] | MIC [10] | MIC [11] | MIC [12] |
| --- | --- | --- | --- | --- | --- | --- | --- | --- | --- | --- | --- | --- | --- | --- | --- | --- |
| O=C1OCc2ccccc2/C1=C\c1ccccc1Br [14E] | 50 µg/mL (≈ 159 µM) | 200 µg/mL (≈ 635 µM) | 25 µg/mL (≈ 79.3 µM) | > 200 µg/mL | > 200 µg/mL | > 200 µg/mL | 200 µg/mL (≈ 635 µM) | > 200 µg/mL | – | – | – | – | – | – | – | – |
| O=C1OCc2ccccc2/C1=C\c1cccc(O)c1 [16E] | 100 µg/mL (≈ 396 µM) | 200 µg/mL (≈ 793 µM) | 200 µg/mL (≈ 793 µM) | > 200 µg/mL | > 200 µg/mL | > 200 µg/mL | 200 µg/mL (≈ 793 µM) | 50 µg/mL (≈ 198 µM) | – | – | – | – | – | – | – | – |
| O=C1OCc2ccccc2/C1=C/c1ccc([N+](=O)[O-])cc1 [17Z] | – | – | – | – | – | – | – | – | > 200 µg/mL | > 200 µg/mL | > 200 µg/mL | > 200 µg/mL | > 200 µg/mL | > 200 µg/mL | > 200 µg/mL | > 200 µg/mL |
| Cc1ccc(/C=C2/C(=O)OCc3ccccc32)cc1 [19E] | – | – | – | – | – | – | – | – | > 200 µg/mL | > 200 µg/mL | > 200 µg/mL | > 200 µg/mL | > 200 µg/mL | > 200 µg/mL | > 200 µg/mL | > 200 µg/mL |
| COc1ccc(/C=C2/C(=O)OCc3ccccc32)cc1 [21E] | – | – | – | – | – | – | – | – | > 200 µg/mL | > 200 µg/mL | > 200 µg/mL | > 200 µg/mL | > 200 µg/mL | > 200 µg/mL | > 200 µg/mL | > 200 µg/mL |
| O=C1OCc2ccccc2/C1=C\c1ccc2c(c1)OCO2 [27E] | – | – | – | – | – | – | – | – | > 200 µg/mL | > 200 µg/mL | > 200 µg/mL | > 200 µg/mL | > 200 µg/mL | > 200 µg/mL | > 200 µg/mL | > 200 µg/mL |
